Measurements: PubChem BioAssay (NCI)
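Interpolation was linear, between the two tested concentrations surrounding the appropriate level; five concentrations were tested over 48 hours in 96-well plates. The concentration for full growth arrest is given as TGI.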

What was measured:
Assay in all cases: NCI-60 cell line screen, 48 h
[1] = system: SN12C renal
[2] = system: KM20L2 colon
[3] = system: SF-268 CNS
[4] = system: K-562 leukemia
[5] = system: MALME-3M melanoma
[6] = system: HCT-15 colon
[7] = system: DLD-1 colon
[8] = system: CCRF-CEM leukemia
[9] = system: LXFL 529 NSCLC
[10] = system: UACC-257 melanoma
[11] = system: OVCAR-4 ovarian
[12] = system: EKVX NSCLC
[13] = system: RPMI-8226 leukemia
[14] = system: RXF 393 renal
[15] = system: OVCAR-5 ovarian
[16] = system: HOP-18 NSCLC
[17] = system: SR leukemia
[18] = system: HOP-62 NSCLC
[19] = system: SNB-19 CNS
[20] = system: HCT-116 colon
[21] = system: U251 CNS
[22] = system: NCI-H522 lung
[23] = system: SW-620 colon
[24] = system: UACC-62 melanoma
[25] = system: HT29 colon
[26] = system: SNB-78 CNS
[27] = system: M19-MEL melanoma
[28] = system: OVCAR-3 ovarian
[29] = system: TK-10 renal
[30] = system: DMS 273 small cell lung
[31] = system: M14 melanoma
[32] = system: IGROV1 ovarian
[33] = system: XF 498 CNS
[34] = system: NCI-H226 lung
[35] = system: SF-295 CNS
[36] = system: A498 renal
[37] = system: MOLT-4 leukemia
[38] = system: HL-60(TB) leukemia
[39] = system: SK-OV-3 ovarian
[40] = system: SF-539 CNS
[41] = system: DMS 114 small cell lung
[42] = system: KM12 colon
[43] = system: HOP-92 NSCLC
[44] = system: SK-MEL-28 melanoma
[45] = system: NCI-H23 lung
[46] = system: SK-MEL-5 melanoma
[47] = system: SNB-75 CNS
[48] = system: A549 NSCLC
[49] = system: COLO 205 colon
[50] = system: SK-MEL-2 melanoma
[51] = system: LOX IMVI melanoma
[52] = system: 786-0 renal
[53] = system: ACHN renal
[54] = system: NCI-H460 lung
[55] = system: OVCAR-8 ovarian
[56] = system: CAKI-1 renal
[57] = system: UO-31 renal
[58] = system: HCC-2998 colon

For `COC(=O)C1C(OCc2ccccc2)C2CCC1(OC)C=C2C` (stereo not drawn), the TGI [1] was greater than 100 µM, the TGI [2] was greater than 100 µM and the TGI [3] was greater than 100 µM. The TGI [4] was greater than 100 µM, the TGI [5] was greater than 100 µM and the TGI [6] was greater than 100 µM. It also gave a TGI [7] greater than 100 µM, a TGI [8] of 65 µM and a TGI [9] greater than 100 µM. The TGI [10] was greater than 100 µM, the TGI [11] was greater than 100 µM and the TGI [12] was greater than 100 µM. The TGI [13] was greater than 100 µM, the TGI [14] was greater than 100 µM and the TGI [15] was greater than 100 µM. For the same compound, the TGI [16] was greater than 100 µM, the TGI [17] was 66.6 µM and the TGI [18] was greater than 100 µM. For the same compound, the TGI [19] was greater than 100 µM, the TGI [20] was greater than 100 µM and the TGI [21] was greater than 100 µM. The TGI [22] was greater than 100 µM, the TGI [23] was greater than 100 µM and the TGI [24] was greater than 100 µM. The TGI [25] was greater than 100 µM, the TGI [26] was greater than 100 µM and the TGI [27] was greater than 100 µM. For the same compound, the TGI [28] was greater than 100 µM, the TGI [29] was greater than 100 µM and the TGI [30] was greater than 83.9 µM. The TGI [31] was greater than 100 µM, the TGI [32] was greater than 100 µM and the TGI [33] was greater than 86.7 µM. It also gave a TGI [34] greater than 100 µM, a TGI [35] greater than 100 µM and a TGI [36] greater than 100 µM. For the same compound, the TGI [37] was 80.6 µM, the TGI [38] was 29.8 µM and the TGI [39] was greater than 100 µM. The TGI [40] was greater than 100 µM, the TGI [41] was greater than 100 µM and the TGI [42] was greater than 100 µM. It also gave a TGI [43] greater than 100 µM, a TGI [44] greater than 100 µM and a TGI [45] greater than 100 µM. The TGI [46] was greater than 100 µM, the TGI [47] was greater than 100 µM and the TGI [48] was greater than 100 µM. For the same compound, the TGI [49] was greater than 100 µM, the TGI [50] was greater than 93.7 µM and the TGI [51] was greater than 100 µM. The TGI [52] was greater than 100 µM, the TGI [53] was greater than 100 µM and the TGI [54] was greater than 100 µM. The TGI [55] was greater than 100 µM, the TGI [56] was greater than 100 µM and the TGI [57] was greater than 100 µM. It also gave a TGI [58] greater than 100 µM.
